In patent US10913736B2 (UNIVERSITY OF WASHINGTON, priority 2014, dated 2021):
Several values for one entry are separate records, joined by “and”; a condition that tells them apart may be missing. Identical values can stand only once. Like-named read-outs stand apart in the source and are kept apart here.

Tests used:
MetRS (T. brucei) = MetRS (T. brucei) (Trypanosoma brucei brucei, UniProt Q38C91); assay: MetRS (T. brucei) ATP depletion assay using Kinase-Glo; assay type: biochemical
T. brucei = assay: Growth inhibition assay of T. brucei cell cultures (Alamar Blue, 48 h); assay type: cell-based
[1] = Trypanosoma brucei; read-out: B) T. brucei EC50

Chain of MetRS (T. brucei) (Q38C91 entry or part of it): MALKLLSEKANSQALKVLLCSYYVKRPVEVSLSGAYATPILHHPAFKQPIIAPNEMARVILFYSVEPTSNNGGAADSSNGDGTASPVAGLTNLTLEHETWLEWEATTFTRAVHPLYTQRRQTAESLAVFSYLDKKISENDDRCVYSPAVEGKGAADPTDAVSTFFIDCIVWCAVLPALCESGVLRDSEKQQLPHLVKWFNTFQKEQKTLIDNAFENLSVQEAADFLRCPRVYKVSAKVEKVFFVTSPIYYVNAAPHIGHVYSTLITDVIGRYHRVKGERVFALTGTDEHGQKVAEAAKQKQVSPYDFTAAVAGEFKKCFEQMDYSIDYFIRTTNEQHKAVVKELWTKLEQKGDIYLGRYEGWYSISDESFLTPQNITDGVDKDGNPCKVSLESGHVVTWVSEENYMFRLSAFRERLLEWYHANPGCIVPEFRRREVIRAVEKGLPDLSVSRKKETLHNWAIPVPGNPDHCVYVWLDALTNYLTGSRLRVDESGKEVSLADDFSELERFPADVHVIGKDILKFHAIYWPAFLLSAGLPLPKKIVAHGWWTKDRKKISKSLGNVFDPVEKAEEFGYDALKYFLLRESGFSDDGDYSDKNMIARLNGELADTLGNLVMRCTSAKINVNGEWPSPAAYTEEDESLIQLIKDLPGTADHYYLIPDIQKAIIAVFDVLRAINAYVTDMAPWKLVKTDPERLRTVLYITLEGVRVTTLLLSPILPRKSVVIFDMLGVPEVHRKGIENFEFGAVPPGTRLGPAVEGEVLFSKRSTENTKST

Row | Structure (SMILES) | IC50 (MetRS (T. brucei)) | EC50 (T. brucei; [1]) | EC50 (T. brucei; read-out: B) T. brucei EC50)
1 | O=C(CCNCc1cc(Cl)cc(Cl)c1)Nc1nc2ncccc2[nH]1 [Compound 1576, 3-(3,5-dichlorobenzylamino)-N-(3H-imidazo[4,5-b]pyridin-2-yl)propanamide] | 0.109 µM | 0.403 µM | –
2 | CC(C)(CNCc1cc(Cl)cc(Cl)c1)CNc1nc2cccnc2[nH]1 [Compound 1641, N1-(3,5-dichlorobenzyl)-N3-(1H-imidazo[4,5-b]pyridin-2-yl)-2,2-dimethylpropane-1,3-diamine] | < 0.049 µM and 0.138 µM | 7.65 µM | 8.35 µM
3 | O=C(COc1ccc(Cl)cc1Cl)NCc1nc2ccccc2[nH]1 [Compound 1671, N-(1H-1,3-benzodiazol-2-ylmethyl)-2-(2,4-dichlorophenoxy)acetamide] | 1.27 µM | > 20 µM | –
4 | O=C(COc1ccc(Cl)cc1Cl)NCc1cc2ccccc2[nH]1 [Compound 1674, 2-(2,4-dichlorophenoxy)-N-(1H-indol-2-ylmethyl)acetamide] | 23 µM | > 20 µM | –
5 | O=C(COc1ccc(Cl)cc1Cl)NCCc1nc2ccccc2[nH]1 [Compound 1675, N-[2-(1H-1,3-benzodiazol-2-yl)ethyl]-2-(2,4-dichlorophenoxy)acetamide] | 8.23 µM | > 20 µM | –
6 | O=C(NCc1nc2cccnc2[nH]1)OCc1ccccc1 [Compound 1699, benzyl N-{3H-imidazo[4,5-b]pyridin-2-ylmethyl}carbamate] | 13.1 µM | > 10 µM | –
7 | O=C(NCCc1ccc(Cl)cc1Cl)NCc1nc2ccccc2[nH]1 [Compound 1702, 1-((1H-benzo[d]imidazol-2-yl)methyl)-3-(2,4-dichlorophenethyl)urea] | 0.009 µM and 0.011 µM | 4.97 µM | –
8 | N[C@@H](CC(=O)NCc1nc2ccccc2[nH]1)Cc1ccc(F)cc1 [Compound 1703, (3R)-3-amino-N-(1H-1,3-benzodiazol-2-ylmethyl)-4-(4-fluorophenyl)butanamide] | 12.1 µM | > 10 µM | –
9 | O=C(CCOc1ccc(Cl)cc1Cl)NCc1nc2cccnc2[nH]1 [Compound 1704, 3-(2,4-dichlorophenoxy)-N-{3H-imidazo[4,5-b]pyridin-2-ylmethyl}propanamide] | 0.28 µM | 8.61 µM | –
10 | N[C@H](CC(=O)NCc1nc2ccccc2[nH]1)Cc1ccc(Cl)cc1Cl [Compound 1726, (3S)-3-amino-N-(1H-1,3-benzodiazol-2-ylmethyl)-4-(2,4-dichlorophenyl)butanamide] | 2.38 µM | 8.02 µM | –
11 | CN(Cc1nc2ccccc2[nH]1)C(=O)CCOc1ccc(Cl)cc1Cl [Compound 1727, N-(1H-1,3-benzodiazol-2-ylmethyl)-3-(2,4-dichlorophenoxy)-N-methylpropanamide] | 5.09 µM | > 20 µM | –
12 | CN(Cc1nc2ccccc2[nH]1)C(=O)OCCc1ccc(Cl)cc1Cl [Compound 1728, 2-(2,4-dichlorophenyl)ethyl N-(1H-1,3-benzodiazol-2-ylmethyl)-N-methylcarbamate] | > 10 µM | > 20 µM | –
13 | O=C(/C=C\Oc1ccc(Cl)cc1Cl)NCc1nc2ccccc2[nH]1 [Compound 1730, (Z)—N-((1H-benzo[d]imidazol-2-yl)methyl)-3-(2,4-dichlorophenoxy)acrylamide] | 0.142 µM | 0.723 µM | –
14 | O=C(Cc1ccc(Cl)cc1Cl)N1CCCC(c2nc3ccccc3[nH]2)C1 (stereo not shown) [Compound 1731, 1-(3-(1H-benzo[d]imidazol-2-yl)piperidin-1-yl)-2-(2,4-dichlorophenyl) ethanone] | 5 µM | > 20 µM | –
15 | O=C(Cc1cc(Cl)cc(Cl)c1)N1CCCC(c2nc3ccccc3[nH]2)C1 (stereo not shown) [Compound 1732, 1-(3-(1H-benzo[d]imidazol-2-yl)piperidin-1-yl)-2-(3,5-dichlorophenyl)ethanone] | 0.288 µM | > 5 µM | –
16 | O=C(Cc1cc(Cl)cc(Cl)c1)N1CCCC(c2nc3c(Cl)cccc3[nH]2)C1 (stereo not shown) [Compound 1733, 1-(3-(4-chloro-1H-benzo[d]imidazol-2-yl)piperidin-1-yl)-2-(3,5-dichlorophenyl) ethanone] | 0.926 µM | 8.81 µM | –
17 | O=C1CN(Cc2ccccc2Cl)CCN1Cc1nc2ccccc2[nH]1 [Compound 1735, 1-(1H-1,3-benzodiazol-2-ylmethyl)-4-[(2-chlorophenyl)methyl]piperazin-2-one] | > 10 µM | > 20 µM | –
18 | O=C1CN(Cc2cccc(Cl)c2)CCN1Cc1nc2ccccc2[nH]1 [Compound 1736, 1-((1H-benzo[d]imidazol-2-yl)methyl)-4-(3-chlorobenzyl)piperazin-2-one] | > 10 µM | > 20 µM | –
19 | O=C(CCOc1ccc(Cl)cc1Cl)NC1(c2nc3ccccc3[nH]2)CC1 [Compound 1738, N-(1-(1H-benzo[d]imidazol-2-yl)cyclopropyl)-3-(2,4-dichlorophenoxy)propanamide] | > 10 µM | > 20 µM | –
20 | O=C(NCCc1ccc(Cl)cc1Cl)OCc1nc2ccccc2[nH]1 [Compound 1739, [2-(2,4-Dichloro-phenyl)-ethyl]-carbamic acid 1H-benzoimidazol-2-ylmethyl ester] | 1.45 µM | > 10 µM | –

Row | Structure (SMILES) | IC50 (MetRS (T. brucei)) | EC50 (T. brucei; [1]) | EC50 (T. brucei; read-out: B) T. brucei EC50)
21 | O=C(CCOc1ccc(Cl)cc1Cl)NCc1nc2ccc(F)cc2[nH]1 [Compound 1740, 3-(2,4-dichlorophenoxy)-N-((6-fluoro-1H-benzo[d]imidazol-2-yl)methyl)propanamide] | 0.549 µM | > 10 µM | –
22 | O=C(NCc1nc2ccc(F)cc2[nH]1)OCCc1ccc(Cl)cc1Cl [Compound 1741, (6-Fluoro-1H-benzoimidazol-2-ylmethyl)-carbamic acid 2-(2,4-dichloro-phenyl)-ethyl ester] | 0.132 µM | 4.22 µM | –
23 | O=C(Cc1cc(Cl)cc(Cl)c1)N1CCCC(c2nc3cc(F)ccc3[nH]2)C1 (stereo not shown) [Compound 1744, 2-(3,5-dichlorophenyl)-1-(3-(5-fluoro-1H-benzo[d]imidazol-2-yl)piperidin-1-yl)ethanone] | 0.184 µM | 3.26 µM | –
24 | O=C(Cc1cc(Cl)cc(Cl)c1)N1CCCC(c2nc3cc(Cl)c(Cl)cc3[nH]2)C1 (stereo not shown) [Compound 1745, 1-(3-(5,6-dichloro-1H-benzo[d]imidazol-2-yl)piperidin-1-yl)-2-(3,5-dichlorophenyl)ethanone] | 0.812 µM | 4.6 µM | –
25 | O=C(Cc1cc(Cl)cc(Cl)c1)N1CCCC(c2nc3cc(Cl)c(F)cc3[nH]2)C1 (stereo not shown) [Compound 1746, 1-(3-(5-chloro-6-fluoro-1H-benzo[d]imidazol-2-yl)piperidin-1-yl)-2-(3,5-dichlorophenyl)ethanone] | 0.138 µM | 3.33 µM | –
26 | O=C1CN(Cc2ccc(Cl)cc2Cl)CCN1Cc1nc2ccccc2[nH]1 [Compound 1747, 1-((1H-benzo[d]imidazol-2-yl)methyl)-4-(2,4-dichlorobenzyl)piperazin-2-one] | > 10 µM | > 10 µM | –
27 | O=C1CN(Cc2cc(Cl)cc(Cl)c2)CCN1Cc1nc2ccccc2[nH]1 [Compound 1748, 1-((1H-benzo[d]imidazol-2-yl)methyl)-4-(3,5-dichlorobenzyl)piperazin-2-one] | > 10 µM | > 10 µM | –
28 | Clc1ccc(Cn2cc(Cc3nc4ccccc4[nH]3)nn2)c(Cl)c1 [Compound 1752, 2-((1-(2,4-dichlorobenzyl)-1H-1,2,3-triazol-4-yl)methyl)-1H-benzo[d]imidazole] | 1.36 µM | > 10 µM | –
29 | COC(=O)[C@H](Cc1ccc(Cl)cc1Cl)NC(=O)NCc1nc2ccccc2[nH]1 [Compound 1755, methyl (2S)-2-{[(1H-1,3-benzodiazol-2-ylmethyl)carbamoyl]amino}-3-(2,4-dichlorophenyl)propanoate] | 1.39 µM | > 10 µM | –
30 | O=C(Cc1cc2cc(Cl)cc(Cl)c2o1)NCc1nc2ccccc2[nH]1 [Compound 1756, N-((1H-benzo[d]imidazol-2-yl)methyl)-2-(5,7-dichlorobenzofuran-2-yl)acetamide] | 3.72 µM | > 10 µM | –
31 | O=C(Cc1cc(Cl)cc(Cl)c1)N1CCC[C@@H](c2nc3cc(Cl)ccc3[nH]2)C1 [Compound 1757, (R)-1-(3-(5-chloro-1H-benzo[d]imidazol-2-yl)piperidin-1-yl)-2-(3,5-dichlorophenyl)ethanone] | 3.5 µM | > 10 µM | –
32 | O=C(Nc1cc(Cl)cc(Cl)c1)N1CCCC(c2nc3cc(Cl)ccc3[nH]2)C1 (stereo not shown) [Compound 1759, 3-(5-chloro-1H-benzo[d]imidazol-2-yl)-N-(3,5-dichlorophenyl) piperidine-1-carboxamide] | > 10 µM | > 10 µM | –
33 | O=C1CN(C(=O)c2ccc3ccccc3c2)CCN1Cc1nc2ccccc2[nH]1 [Compound 1760, 1-((1H-benzo[d]imidazol-2-yl)methyl)-4-(2-naphthoyl)piperazin-2-one] | > 10 µM | > 10 µM | –
34 | Clc1cc(Cl)cc(CCN2CCCC(c3nc4nc(Cl)ccc4[nH]3)C2)c1 (stereo not shown) [Compound 1812, 5-chloro-2-(1-(3,5-dichlorophenethyl)piperidin-3-yl)-1H-imidazo[4,5-b]pyridine] | – | 3.76 µM | –
35 | O=C(Nc1cc(Cl)cc(Cl)c1)[C@H]1CCCN(c2nc3nc(Cl)ccc3[nH]2)C1 [Compound 1888, (S)-1-(5-chloro-1H-imidazo[4,5-b]pyridin-2-yl)-N-(3,5-dichlorophenyl)piperidine-3-carboxamide] | – | > 20 µM | –
36 | O=C(N[C@H]1CCCN(c2nc3nc(Cl)ccc3[nH]2)C1)c1cc(Cl)cc(Cl)c1 [Compound 1889] | – | > 20 µM | –
37 | O=C(CO)N(CCCNc1nc2ccc(F)nc2[nH]1)Cc1cc(Cl)cc(Cl)c1 [Compound 1973, N-(3,5-dichlorobenzyl)-N-(3-(5-fluoro-3H-imidazo[4,5-b]pyridin-2-ylamino)propyl)-2-hydroxyacetamide] | 0.011 µM | – | –
38 | NC(=O)N(CCCNc1nc2ccc(F)nc2[nH]1)Cc1cc(Cl)cc(Cl)c1 [Compound 1974, 1-(3,5-dichlorobenzyl)-1-(3-(5-fluoro-3H-imidazo[4,5-b]pyridin-2-ylamino)propyl)urea] | 0.007 µM | – | –
39 | Clc1cc(Cl)c2ccn(CCCNc3nc4ccc(Cl)nc4[nH]3)c2c1 [Compound 1996, 5-chloro-N-[3-(4,6-dichloro-1H-indol-1-yl)propyl]-3H-imidazo[4,5-b]pyridin-2-amine] | – | 5.3 µM | –
